A short description of this data set: Reactivity of polyols with active compounds of formula I. It is filed as physicochemical.

For the molecule `OC[C@H]1O[C@@H](O[C@H]2[C@H](O)[C@@H](O)C(O)O[C@@H]2CO)[C@H](O)[C@@H](O)[C@H]1O` (stereo partly shown) [Lactose], the “Reactivity with the active compounds of formula I (undesired reaction products)” value is listed as “practically no reactivity”.
